B1: AaBGL1: β-glucosidase 1 of Aspergillus aculeatus F-50 secreted by S. pombe ASP3326 strain, crude enzyme after ammonium sulfate and ultrafiltration (protein, listed as Aspergillus aculeatus)
chain: DELAFSPPFYPSPWANGQGEWAEAYQRAVAIVSQMTLDEKVNLTTGTGWELEKCVGQTGGVPRLNIGGMCLQDSPLGIRDSDYNSAFPAGVNVAATWDKNLAYLRGQAMGQEFSDKGIDVQLGPAAGPLGRSPDGGRNWEGFSPDPALTGVLFAETIKGIQDAGVVATAKHYILNEQEHFRQVAEAAGYGFNISDTISSNVDDKTIHEMYLWPFADAVRAGVGAIMCSYNQINNSYGCQNSYTLNKLLKAELGFQGFVMSDWGAHHSGVGSALAGLDMSMPGDITFDSATSFWGTNLTIAVLNGTVPQWRVDDMAVRIMAAYYKVGRDRLYQPPNFSSWTRDEYGFKYFYPQEGPYEKVNHFVNVQRNHSEVIRKLGADSTVLLKNNNALPLTGKERKVAILGEDAGSNSYGANGCSDRGCDNGTLAMAWGSGTAEFPYLVTPEQAIQAEVLKHKGSVYAITDNWALSQVETLAKQASVSLVFVNSDAGEGYISVDGNEGDRNNLTLWKNGDNLIKAAANNCNNTIVVIHSVGPVLVDEWYDHPNVTAILWAGLPGQESGNSLADVLYGRVNPGAKSPFTWGKTREAYGDYLVRELNNGNGAPQDDFSEGVFIDYRGFDKRNETPIYEFGHGLSYTTFNYSGLHIQVLNASSNAQVATETGAAPTFGQVGNASDYVYPEGLTRISKFIYPWLNSTDLKASSGDPYYGVDTAEHVPEGATDGSPQPVLPAGGGSGGNPRLYDELIRVSVTVKNTGRVAGDAVPQLYVSLGGPNEPKVVLRKFDRLTLKPSEETVWTTTLTRRDLSNWDVAAQDWVITSYPKKVHVGSSSRQLPLHAALPKVQ

Key:
crude AaBGL1 [1] = target: T1, crude AaBGL1 (Aspergillus aculeatus, UniProt P48825); test: Inhibition by various sugar; format: biochemical; set-up: P3 secretion signal (N, cleaved yes); made in house; culture supernatant, ammonium sulfate treatment and ultrafiltration, crude enzyme; details: 1 mM pNPG; for inhibition of crude AaBGL1 by the sugar (in words): 0.1 to 10 mM sugar
Description: To 10 μl of 20 mM p-nitrophenyl-β-D-glucoside (hereinafter abbreviated as pNPG), 10 μl of 1M sodium acetate buffer solution (pH 4.5) and 130 μl of water were added, and then 50 μl of the diluted enzyme sample was introduced for reacting them at 37° C. for 10 minutes. 100 μl of the reaction mixture was mixed with 100 μl of 2% sodium carbonate solution to terminate reaction, and then the amount of liberated p-nitrophenol was colorimetrically measured at a wavelength of 450 nm.
By using 1 mM pNPG containing various sugar (0.1 mM, 1.0 mM, 10 mM) as a substrate, the enzyme was reacted in accordance with the activity measurement method. The numerical values shown in Table 5 indicate the ratio (%) of the measured enzymatic activity to the enzymatic activity under a condition where no sugar is contained.

crude AaBGL1 [2] = target: T1, crude AaBGL1; test: Substrate specificity; format: biochemical; set-up: P3 secretion signal (N, cleaved yes); made in house; host or cells: Schizosaccharomyces pombe ASP3326 strain (transformed with pSL6P3AaBGL1); culture supernatant, ammonium sulfate treatment and ultrafiltration, crude enzyme; details: 0.5% (w/v) ICOS, 0.5% (w/v) cellobiose, 1 mM pNPG, 1 mM pNP-cellobiose; for Specific activity: pH 4.5, 37° C., 10 minutes; for Relative activity: relative to cellobiose
Description: Measured in accordance with the activity measurement method by using various substrates. The specific activities and relative activities of the enzyme to each of 0.5% (w/v) ICOS, 0.5% (w/v) cellobiose, 1 mM pNPG, and 1 mM pNP-cellobiose are shown in Table 6.
To 100 μl of 2 mM p-nitrophenyl-β-D-cellobioside (hereinafter referred to as pNP-cellobiose), 10 μl of 1 M sodium acetate buffer solution (pH 4.5) and 40 μl of water were added, followed by addition of 50 μl of the diluted enzyme sample to cultivate for 10 minutes at 37° C. 100 μl of the reaction mixture was mixed with 100 μl of 2% sodium carbonate solution to terminate reaction, and then the amount of liberated p-nitrophenol was colorimetrically measured at a wavelength of 450 nm.
The amount of enzyme that produces 1 μmol of p-nitrophenol per minute was defined as 1 U.
(§1) To 100 μl of 1% cellobiose solution, 10 μl of 1M sodium acetate buffer solution (pH 4.5) was added, followed by addition of 90 μl of the diluted enzyme sample to cultivate for 10 minutes at 37° C. 50 μl of 1N HCl was added to terminate reaction, and then 50 μl of a neutralizing solution comprised of 1M Tris solution:2N sodium hydroxide solution in a ratio of 4:1 was added for neutralization to measure the amount of glucose in the mixture by using glucostat method (Glucose kit, Glucose CII-Test Wako, manufactured by Wako Pure Chemical Industries).
The amount of enzyme that produces 1 μmol of glucose per minute was defined as 1 U.
as §1, with “insoluble cellooligosaccharide (hereinafter referred to as ICOS)” for “cellobiose”

Thermostability test = format: physicochemical; details: crude enzyme, treated at each temperature for 10 minutes
Description: The enzyme was treated at each temperature for 10 minutes, and then reacted by using 1 mM pNPG as a substrate and 50 mM acetate buffer solution (pH 4.5). […] (FIG. 5).
With regard to the each culture supernatant, the thermostability test was carried out in accordance with the thermostability measurement method described in Test Example 7 at a temperature of from 50 to 75° C.
With regard to the each purified sample, the thermostability test was carried out in accordance with the thermostability measurement method described in Test Example 7 at a temperature of from 50 to 75° C.

Glucose inhibition test = format: biochemical; details: 1 mM pNPG
Description: With regard to glucose inhibition, the crude enzyme obtained in Test Example 6 was compared with a commercially available β-glucosidase Novozyme 188 (manufactured by Novozymes). The glucose inhibition activity was measured in accordance with the activity measurement method by using 1 mM pNPG as a substrate and adding glucose to the reaction mixture in a concentration of from 0 to 100 mM. The reaction temperature was 37° C., the pH was 4.5, and the reaction time was 10 minutes. The other reaction conditions were the same as in the activity measurement method described in Test Example 4.
With regard to the each culture supernatant, the glucose inhibition activity was measured in accordance with the activity measurement method, by using 1 mM pNPG as a substrate and adding from 0 to 100 mM of glucose to the reaction mixture.

[3] = Optimal temperature test of the crude enzyme; format: biochemical; details: 1 mM pNPG, 50 mM acetate buffer pH 4.5, 10 minutes
Description: By using 1 mM pNPG as a substrate and 50 mM acetate buffer solution (pH 4.5), the enzyme was reacted for 10 minutes at each temperature. […] (FIG. 3).

Row | Molecule | inhibition of crude AaBGL1 by the sugar (in words) (crude AaBGL1 [1]) | ratio of enzymatic activity to activity without sugar (crude AaBGL1 [1]; sugar concentration 0.1 mM) [%] | ratio of enzymatic activity to activity without sugar (crude AaBGL1 [1]; sugar concentration 1.0 mM) [%] | ratio of enzymatic activity to activity without sugar (crude AaBGL1 [1]; sugar concentration 10 mM) [%] | other results
1 | OC[C@H]1O[C@@H](O[C@H]2[C@H](O)[C@@H](O)C(O)O[C@@H]2CO)[C@H](O)[C@@H](O)[C@H]1O (stereo partly drawn) [Lactose] | not substantially inhibited | 99 | 100 | 100 | 
2 | O=C[C@H](O)[C@@H](O)[C@@H](O)[C@H](O)CO [Galactose] | not substantially inhibited | 97 | 98 | 101 | 
3 | O=[N+]([O-])c1ccc(O[C@@H]2O[C@H](CO)[C@@H](O)[C@H](O)[C@H]2O)cc1 [pNPG, p-nitrophenyl-β-D-glucoside] |  |  |  |  | Specific activity (crude AaBGL1 [2]): 25.7 U/mg; Relative activity (crude AaBGL1 [2]): 61%
4 | O=C[C@H](O)[C@@H](O)[C@H](O[C@@H]1O[C@H](CO)[C@@H](O)[C@H](O)[C@H]1O)[C@H](O)CO [Cellobiose] |  |  |  |  | Specific activity (crude AaBGL1 [2]): 42.1 U/mg; Relative activity (crude AaBGL1 [2]): 100%
5 | O=C[C@H](O)[C@@H](O)[C@H](O)CO [Xylose] | not substantially inhibited | 98 | 99 | 100 | 
6 | O=[N+]([O-])c1ccc(O[C@@H]2O[C@H](CO)[C@@H](O[C@@H]3O[C@H](CO)[C@@H](O)[C@H](O)[C@H]3O)[C@H](O)[C@H]2O)cc1 [pNP-cellobiose, p-nitrophenyl-β-D-cellobioside] |  |  |  |  | Specific activity (crude AaBGL1 [2]): 9.3 U/mg; Relative activity (crude AaBGL1 [2]): 22%
7 | O=C(CO)[C@@H](O)[C@H](O)[C@H](O)CO [Fructose] | not substantially inhibited | 99 | 106 | 115 | 
8 | OC[C@@H](O)[C@@H](O)[C@H](O)[C@@H](O)CO [Sorbitol] | not substantially inhibited | 98 | 99 | 101 | 
9 | OC[C@H]1O[C@H](O[C@H]2[C@H](O)[C@@H](O)[C@H](O)O[C@@H]2CO)[C@H](O)[C@@H](O)[C@@H]1O [Maltose] | inhibited | 99 | 93 | 68 | 
10 | OC[C@H]1O[C@@](CO)(O[C@H]2O[C@H](CO)[C@@H](O)[C@H](O)[C@H]2O)[C@@H](O)[C@@H]1O [Sucrose] | not substantially inhibited | 96 | 99 | 98 | 
11 | B1 |  |  |  |  | thermostability: stable until (Thermostability test): about 60 °C; resistance to glucose inhibition (comparison in words) (Glucose inhibition test; glucose 0 to 100 mM): more resistant to glucose inhibition than Novozyme 188; IC50 (Glucose inhibition test; glucose 0 to 100 mM, 37° C., pH 4.5, 10 minutes, read-out: glucose concentration (I50 value) at which 50% inhibition of the enzymatic activity occurs): 25 mM; activity maintained in the presence of glucose (Glucose inhibition test; 20 mM of glucose added): at least 50%; optimal temperature [3]: about 65 °C

— patent US20130252286A1, “TRANSFORMANT OF YEAST OF GENUS SCHIZOSACCHAROMYCES, AND METHOD FOR PRODUCING SAME” (ASAHI GLASS COMPANY, LIMITED, priority 2010, published 2013)
